Measured values: patent US8242145B2, “Cyclic diaryl ether compounds as antagonists of prostaglandin D2 receptors” (Panmira Pharmaceuticals, LLC, priority 2008, dated 2012)
Each block holds one molecule with its values, some of them ahead of it.

Columns and labels:
human DP2 receptor = target: T1, human DP2 receptor (Homo sapiens, UniProt Q9Y5Y4); test: DP2/CRTH2 radioligand binding assay using [3H]PGD2; settings: hDP2 (CRTH2) binding assay
T1 construct: expressed in transfected cells
T1 sequence (Q9Y5Y4 1-395): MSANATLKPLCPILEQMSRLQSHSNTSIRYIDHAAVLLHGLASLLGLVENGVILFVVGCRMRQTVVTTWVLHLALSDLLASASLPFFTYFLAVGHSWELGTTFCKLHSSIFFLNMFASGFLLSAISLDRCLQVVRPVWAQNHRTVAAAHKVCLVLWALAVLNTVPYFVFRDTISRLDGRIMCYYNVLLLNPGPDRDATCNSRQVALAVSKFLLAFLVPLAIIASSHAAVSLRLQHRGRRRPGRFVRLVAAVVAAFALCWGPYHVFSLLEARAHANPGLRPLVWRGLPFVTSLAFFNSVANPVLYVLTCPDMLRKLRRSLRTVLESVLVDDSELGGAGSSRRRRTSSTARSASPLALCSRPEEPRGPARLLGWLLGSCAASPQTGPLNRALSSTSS
Method in brief: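 HEK293 membranes with stable recombinant human DP2, incubated with 1 nM [3H]PGD2 and compound 60 min at room temperature in pH 7.4 HEPES/MnCl2/EDTA buffer, with or without 0.2% human serum albumin.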

[1] = target: T2, recombinant human CRTH2 receptor (Homo sapiens, UniProt Q9Y5Y4); test: GTPγS binding assay; format: biochemical; settings: +HSA; read-out: hDP2 GTPγS μM (+HSA)
T2 construct: expressed in transfected cells
T2 sequence (Q9Y5Y4 1-395): T1 sequence (Q9Y5Y4 1-395)
Method in brief: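 Membranes from CHO cells stably expressing recombinant receptor (~12.5 μg/well), incubated 60 min at 30° C with 0.05 nM [^35S]-GTPγS, 80 nM PGD2, 5 μM GDP in pH 7.4 Hepes buffer with 0.2% human serum albumin. Filter-bound radioactivity counted; specific binding = total minus binding without PGD2; IC50 from titration curves.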

human DP1 receptor = target: T3, human DP1 receptor (Homo sapiens, UniProt Q13258); test: DP1 radioligand binding assay using [3H]BWA868C; settings: hDP1 binding
T3 construct: tissue Biological Specialty Corporation; host or cells: human platelets, membranes
T3 sequence (Q13258 1-359): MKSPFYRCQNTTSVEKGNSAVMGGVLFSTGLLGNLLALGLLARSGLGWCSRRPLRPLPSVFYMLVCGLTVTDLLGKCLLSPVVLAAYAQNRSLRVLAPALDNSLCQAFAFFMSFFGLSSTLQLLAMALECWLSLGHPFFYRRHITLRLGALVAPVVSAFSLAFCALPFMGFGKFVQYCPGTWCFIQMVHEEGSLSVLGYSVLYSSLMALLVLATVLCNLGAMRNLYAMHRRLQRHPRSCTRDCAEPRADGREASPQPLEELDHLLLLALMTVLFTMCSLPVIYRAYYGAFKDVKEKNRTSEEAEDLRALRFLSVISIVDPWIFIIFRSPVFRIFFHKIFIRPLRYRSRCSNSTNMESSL
Method in brief: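 Human platelet membranes (20 μg protein/well) incubated 60 min at room temperature with 2 nM [3H]BWA868C in 50 mM Hepes, 10 mM MnCl2, 1 mM EDTA, ±0.2% human serum albumin, pH 7.4. Bound label measured after filtration; nonspecific binding defined with 10 μM BW A868C. IC50 from titration curves.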

SMILES: COc1ccc(C(C)C(=O)O)cc1Oc1ccc(C(F)(F)F)cc1CN1C(=O)O[C@H](c2ccccc2)[C@@H]1C (stereo partly drawn) [Compound 1-44, 2-{4-Methoxy-3-[2-((4S,5R)-4-methyl-2-oxo-5-phenyl-oxazolidin-3-ylmethyl)-4-trifluoromethyl-phenoxy]-phenyl}-propionic acid]
IC50 (human DP2 receptor): < 0.3 µM | IC50 [1]: 0.3 to 1 µM | IC50 (human DP1 receptor): > 1 µM

SMILES: CCOc1ccc(CC(=O)O)cc1Oc1ccc(Br)cc1CN1C(=O)O[C@@H](c2ccccc2)[C@H]1C [Compound 1-88, {3-[4-Bromo-2-((4R,5S)-4-methyl-2-oxo-5-phenyl-oxazolidin-3-ylmethyl)-phenoxy]-4-ethoxy-phenyl}-acetic acid]
IC50 (human DP2 receptor): < 0.3 µM | IC50 [1]: < 0.3 µM | IC50 (human DP1 receptor): > 1 µM

SMILES: O=C(O)Cc1cccc(Oc2ccc(Br)cc2CN2C(=O)O[C@@H]3Cc4ccccc4[C@@H]32)c1 [Compound 2-2, {3-[4-Bromo-2-((3aS,8aR)-2-oxo-8,8a-dihydro-3aH-indeno[1,2-d]oxazol-3-ylmethyl)-phenoxy]-phenyl}-acetic acid]
IC50 (human DP2 receptor): < 0.3 µM | IC50 [1]: < 0.3 µM | IC50 (human DP1 receptor): > 1 µM

SMILES: COc1ccc(CC(=O)O)cc1Oc1ccc(Br)cc1CN1C(=O)O[C@H](c2ccccc2)[C@@H]1C [Compound 1-30, {3-[4-Bromo-2-((4S,5R)-4-methyl-2-oxo-5-phenyl-oxazolidin-3-ylmethyl)-phenoxy]-4-methoxy-phenyl}-acetic acid]
IC50 (human DP2 receptor): < 0.3 µM | IC50 [1]: 0.3 to 1 µM | IC50 (human DP1 receptor): > 1 µM

Other lines, results leading:

IC50 (human DP2 receptor): 0.3 to 1 µM | IC50 [1]: 0.3 to 1 µM | IC50 (human DP1 receptor): > 1 µM
SMILES: Cn1cc(-c2ccc(Oc3cccc(CC(=O)O)c3)c(CN3CCOC3=O)c2)cn1 [Compound 1-84, {3-[4-(1-Methyl-1H-pyrazol-4-yl)-2-(2-oxo-oxazolidin-3-ylmethyl)-phenoxy]-phenyl}-acetic acid]

IC50 (human DP2 receptor): < 0.3 µM | IC50 [1]: < 0.3 µM | IC50 (human DP1 receptor): > 1 µM
SMILES: COc1ccc(CC(=O)O)cc1Oc1ccc(Cl)cc1CN1CCOC1=O [Compound 1-86, {3-[4-Chloro-2-(2-oxo-oxazolidin-3-ylmethyl)-phenoxy]-4-methoxy-phenyl}-acetic acid]

IC50 (human DP2 receptor): < 0.3 µM | IC50 [1]: > 1 µM | IC50 (human DP1 receptor): > 1 µM
SMILES: O=C(O)Cc1cccc(Oc2ccc(-c3cccnc3)cc2CN2CCOC2=O)c1 [Compound 1-8, {3-[2-(2-Oxo-oxazolidin-3-ylmethyl)-4-pyridin-3-yl-phenoxy]-phenyl}-acetic acid]

IC50 (human DP2 receptor): < 0.3 µM | IC50 [1]: < 0.3 µM | IC50 (human DP1 receptor): > 1 µM
SMILES: O=C(O)Cc1cc(Cl)cc(Oc2ccc(Br)cc2CN2CCOC2=O)c1 [Compound 1-89, {3-[4-Bromo-2-(2-oxo-oxazolidin-3-ylmethyl)-phenoxy]-5-chloro-phenyl}-acetic acid]
